Experimental data taken from patent US6191135A, “Neurokinin antagonists” (Boehringer Ingelheim KG, priority 1994, dated 2001).

Target: T1, NK1 -receptor (substance P-receptor) (Homo sapiens, UniProt P25103)
T1 construct: intact human lymphoblastoma cells (IM-9) which express NK1 -receptors; endogenous in cells; host or cells: IM-9 human lymphoblastoma cells
Assay: NK1-receptor affinity: displacement of 125I labelled substance P on intact human lymphoblastoma cells (IM-9)
Format: binding
Settings: intact human lymphoblastoma cells (IM-9) expressing NK1-receptors, read-out: Ki
Method: The receptor affinity for the NK1 -receptor (substance P-receptor) was determined on intact human lymphoblastoma cells (IM-9) which express NK1 -receptors, and the displacement of ^125 I labelled substance P was measured.

T1 sequence (P25103 whole entry): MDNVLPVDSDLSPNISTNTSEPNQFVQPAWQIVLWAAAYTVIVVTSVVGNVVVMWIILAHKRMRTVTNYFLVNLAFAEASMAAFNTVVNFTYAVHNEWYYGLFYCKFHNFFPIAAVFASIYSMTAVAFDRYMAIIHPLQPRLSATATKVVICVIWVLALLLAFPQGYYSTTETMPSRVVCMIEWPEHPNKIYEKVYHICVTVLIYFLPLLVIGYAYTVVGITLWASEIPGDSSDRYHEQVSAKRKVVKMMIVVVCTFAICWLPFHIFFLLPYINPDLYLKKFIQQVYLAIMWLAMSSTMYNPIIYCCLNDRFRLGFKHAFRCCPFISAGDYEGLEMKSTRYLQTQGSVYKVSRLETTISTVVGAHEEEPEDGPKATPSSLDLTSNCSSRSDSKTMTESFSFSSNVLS

| Structure (SMILES) | Ki [nM] |
| --- | --- |
| COc1ccccc1C(CNCc1cc(C(F)(F)F)cc(C(F)(F)F)c1)N1CCCC(C)C1 (centres unmarked) [Example 81, 3,5-Bistrifluoromethylbenzyl-[2-(2-methoxyphenyl)-2-(3-methylpiperidine-1-yl)-ethyl]-amine] | 90 |
| COc1ccccc1C(CNCc1cc(C(F)(F)F)cc(C(F)(F)F)c1)N1CCC(C)CC1 (centres unmarked) [Example 82, 3,5-Bistrifluoromethylbenzyl-[2-(2-methoxyphenyl)-2-(4-methylpiperidine-1-yl)-ethyl]-amine] | 52 |
| COc1ccccc1C(CNCc1cc(C(F)(F)F)cc(C(F)(F)F)c1)N1CC(C)CC(C)C1 (centres unmarked) [Example 83, 3,5-Bistrifluoromethylbenzyl-[2-(2-methoxyphenyl)-2-(3,5-dimethylpiperidine-1-yl)-ethyl]-amine] | 209 |
| COc1ccccc1C(CNCc1cc(C(F)(F)F)cc(C(F)(F)F)c1)N1CCC(C2CCCCC2)CC1 (centres unmarked) [Example 89, 3,5-Bistrifluoromethylbenzyl-[2-(2-methoxyphenyl)-2-(4-cyclohexylpiperidine-1-yl)-ethyl]-amine] | 80 |
| COc1ccccc1C(CNCc1cc(C(F)(F)F)cc(C(F)(F)F)c1)N1CCC(N2CCCCC2)CC1 (centres unmarked) [Example 91] | 2 |
| FC(F)(F)c1cc(CNCC(c2ccccc2)N2CCOCC2)cc(C(F)(F)F)c1 (centres unmarked) [Example 96, 3,5-Bistrifluoromethylbenzyl-(2-phenyl-2-morpholine-4-yl-ethyl)-amine] | 185 |
| COc1ccccc1C(CNCc1cc(C(F)(F)F)cc(C(F)(F)F)c1)N1CCC(c2c[nH]c3ccccc23)CC1 (centres unmarked) [Example 97, 3,5-Bistrifluoromethylbenzyl-(2-(2-methoxyphenyl)-2-(4-(3-indolyl)-piperidine-1-yl)-ethyl]-amine] | 300 |
| CN1CCN(C(CNC(=O)Nc2cc(C(F)(F)F)cc(C(F)(F)F)c2)c2ccccc2)CC1 (centres unmarked) [Example 105, N-3,5-Bistrifluoromethylphenyl-N'-[2-phenyl-2-(4-methylpiperazine-1-yl)-ethyl]-urea] | 78 |
| COc1ccccc1C(CNC(=O)Nc1cc(C(F)(F)F)cc(C(F)(F)F)c1)N1CCN(C)CC1 (centres unmarked) [Example 107, N-3,5-Bistrifluoromethylphenyl-N'-[2-(2-methoxyphenyl)-2-(4-methylpiperazin-1-yl)-ethyl]-urea] | 250 |
| CCCN1CCN(C(CNC(=O)Nc2cc(C(F)(F)F)cc(C(F)(F)F)c2)c2ccccc2OC)CC1 (centres unmarked) [Example 108, N-3,5-Bistrifluoromethylphenyl-N'-[2-(2-methoxyphenyl)-2-(4-(1-propyl)piperazine-1-yl)-ethyl]-urea] | 34 |
| COc1ccccc1C(CNC(=O)Nc1cc(C(F)(F)F)cc(C(F)(F)F)c1)N1CCN(C(C)C)CC1 (centres unmarked) [Example 110, N-3,5-Bistrifluoromethylphenyl-N'-[2-(2-methoxyphenyl)-2-(4-(2-propyl)piperazin-1-yl)-ethyl]-urea] | 28 |
| COc1ccccc1C(CNC(=O)Nc1cc(C(F)(F)F)cc(C(F)(F)F)c1)N1CCN(C2CCCC2)CC1 (centres unmarked) [Example 111, N-3,5-Bistrifluoromethylphenyl-N'-[2-(2-methoxyphenyl)-2-(4-cyclopentylpiperazine-1-yl)-ethyl]-urea] | 12 |
| O=C(NCC(c1ccccc1)N1CCN(C2CCCCC2)CC1)Nc1ccccc1 (centres unmarked) [Example 112, N-Phenyl-N'-[2-phenyl-2-(4-cyclohexylpiperazine-1-yl)-ethyl]-urea] | 1000 |
| O=C(NCC(c1ccccc1)N1CCN(C2CCCCC2)CC1)Nc1ccccc1Cl (centres unmarked) [Example 113, N-2-Chlorophenyl-N'-[2-phenyl-2-(4-cyclohexylpiperazine-1-yl)-ethyl]-urea] | 403 |
| COc1ccccc1NC(=O)NCC(c1ccccc1)N1CCN(C2CCCCC2)CC1 (centres unmarked) [Example 114, N-2-Methoxyphenyl-N'-[2-phenyl-2-(4-cyclohexylpiperazine-1-yl)-ethyl]-urea] | 490 |
| O=C(NCC(c1ccccc1)N1CCN(C2CCCCC2)CC1)Nc1cc(C(F)(F)F)cc(C(F)(F)F)c1 (centres unmarked) [Example 115, N-3,5-Bistrifluoromethylphenyl-N'-[2-phenyl-2-(4-cyclohexylpiperazine-1-yl)-ethyl]-urea] | 30 |
| COc1ccccc1C(CNC(=O)Nc1cc(C(F)(F)F)cc(C(F)(F)F)c1)N1CCN(C2CCCCC2)CC1 (centres unmarked) [Example 116, N-3,5-Bistrifluoromethylphenyl-N'-[2-(2-methoxyphenyl)-2-(4-cyclohexylpiperazine-1-yl)-ethyl]-urea] | 24 |
| O=C(NCC(c1ccc(Cl)c(Cl)c1)N1CCN(C2CCCCC2)CC1)Nc1cc(C(F)(F)F)cc(C(F)(F)F)c1 (centres unmarked) [Example 117, N-3,5-Bistrifluoromethylphenyl-N'-[2-(3,4-dichlorophenyl)-2-(4-cyclohexylpiperazine-1-yl)-ethyl]-urea] | 15 |
| COc1ccccc1C(CNC(=O)Nc1cc(C(F)(F)F)cc(C(F)(F)F)c1)N1CCN(C2CCCCCC2)CC1 (centres unmarked) [Example 120, N-3,5-Bistrifluoromethylphenyl-N'-[2-(2-methoxyphenyl)-2-(4-cycloheptylpiperazine-1-yl)-ethyl]-urea] | 36 |

| Structure (SMILES) | Ki [nM] |
| --- | --- |
| COc1ccccc1C(CNC(=O)Nc1cc(C(F)(F)F)cc(C(F)(F)F)c1)N1CCN(CCC2CCCCC2)CC1 (centres unmarked) [Example 121, N-3,5-Bistrifluoromethylphenyl-N'-[2-(2-methoxyphenyl)-2-(4-(2-cyclohexylethyl)piperazine-1-yl)-ethyl]-urea] | 124 |
| O=C(NCC(c1ccccc1)N1CCN(c2ccccc2)CC1)Nc1cc(C(F)(F)F)cc(C(F)(F)F)c1 (centres unmarked) [Example 123, N-3,5-Bistrifluoromethylphenyl-N'-[2-phenyl-2-(4-phenylpiperazine-1-yl)-ethyl]-urea] | 600 |
| COc1ccccc1C(CNC(=O)Nc1cc(C(F)(F)F)cc(C(F)(F)F)c1)N1CCN(c2ccccc2)CC1 (centres unmarked) [Example 142] | 650 |
| O=C(NCC(c1ccccc1)N1CCN(Cc2ccccc2)CC1)Nc1cc(C(F)(F)F)cc(C(F)(F)F)c1 (centres unmarked) [Example 146] | 115 |
| COc1ccccc1C(CNC(=O)Nc1cc(C(F)(F)F)cc(C(F)(F)F)c1)N1CCN(Cc2ccccc2)CC1 (centres unmarked) [Example 147] | 190 |
| COc1ccccc1C(CNC(=O)Nc1cc(C(F)(F)F)cc(C(F)(F)F)c1)N1CCN(Cc2ccc3c(c2)OCO3)CC1 (centres unmarked) [Example 148, N-3,5-Bistrifluoromethylphenyl-N'-[2-(2-methoxyphenyl)-2-(3,4-methylenedioxybenzyl-piperazine-1-yl)-ethyl]-urea] | 286 |
| COc1ccccc1C(CNC(=O)Nc1cc(C(F)(F)F)cc(C(F)(F)F)c1)N1CCN(CCc2ccccc2)CC1 (centres unmarked) [Example 150, N-3,5-Bistrifluoromethyl-phenyl-phenyl-N'-[2-(2-methoxyphenyl-2-(4-2-phenylethyl)-piperazine-1-yl)-ethyl]-urea] | 717 |
| COc1ccccc1C(CNC(=O)Nc1cc(C(F)(F)F)cc(C(F)(F)F)c1)N1CCN(C(C)c2ccccc2)CC1 (centres unmarked) [Example 151] | 215 |
| COc1ccccc1C(CNC(=O)Nc1cc(C(F)(F)F)cc(C(F)(F)F)c1)N1CCN(c2ccccn2)CC1 (centres unmarked) [Example 156] | 479 |
| COc1ccccc1C(CNC(=O)Nc1cc(C(F)(F)F)cc(C(F)(F)F)c1)N1CCN(c2ccc3ccccc3n2)CC1 (centres unmarked) [Example 158, N-3,5-Bistrifluoromethylphenyl-N'-[2-(2-methoxyphenyl)-2-(4-(2-quinolinyl)piperazine-1-yl)-ethyl]-urea] | 905 |
| COc1ccccc1C(CNC(=O)Nc1cc(C(F)(F)F)cc(C(F)(F)F)c1)N1CCCCC1 (centres unmarked) [Example 166] | 150 |
| O=C(NCC(c1ccccc1)N1CCCCC1)Nc1cc(C(F)(F)F)cc(C(F)(F)F)c1 (centres unmarked) [Example 167] | 1000 |
| COc1ccccc1C(CNC(=O)Nc1cc(C(F)(F)F)cc(C(F)(F)F)c1)N1CCCC(C)C1 (centres unmarked) [Example 169] | 888 |
| COc1ccccc1C(CNC(=O)Nc1cc(C(F)(F)F)cc(C(F)(F)F)c1)N1CCC(C)CC1 (centres unmarked) [Example 170] | 84 |
| COc1ccccc1C(CNC(=O)Nc1cc(C(F)(F)F)cc(C(F)(F)F)c1)N1CCC(C2CCCCC2)CC1 (centres unmarked) [Example 171, N-3,5-Bistrifluoromethylphenyl-N'-[2-(2-methoxyphenyl)-2-(4-cyclohexylpiperidin-1-yl)-ethyl]-urea] | 898 |
| COc1ccccc1C(CNC(=O)Nc1cc(C(F)(F)F)cc(C(F)(F)F)c1)N1CC(C)CC(C)C1 (centres unmarked) [Example 172] | 173 |
| COc1ccccc1C(CNC(=O)Nc1cc(C(F)(F)F)cc(C(F)(F)F)c1)N1CCC(Cc2ccccc2)CC1 (centres unmarked) [Example 175, N-3,5-Bistrifluoromethylphenyl-N'-[2-(2-methoxyphenyl)-2-(4-benzylpiperidin-1-yl)-ethyl]-urea] | 230 |
| COc1ccccc1C(CNC(=O)Nc1cc(C(F)(F)F)cc(C(F)(F)F)c1)N1C2CCCC1CC2 (centres unmarked) [Example 176, N-3,5-Bistrifluoromethylphenyl-N'-[2-(2-methoxyphenyl)-2-(nortropan-8-yl)-ethyl]-urea] | 92 |
| COc1ccccc1C(CNC(=O)Nc1cc(C(F)(F)F)cc(C(F)(F)F)c1)N1CCC(N2CCCCC2)CC1 (centres unmarked) [Example 177, N-3,5-Bistrifluoromethylphenyl-N'-[2-(2-methoxyphenyl)-2-(4-piperidin-1-yl)-piperidin-1-yl-ethyl]-urea] | 10 |
